Results reported in patent US8614208B2, “Fused heterocyclic ring derivative and use thereof” (Takeda Pharmaceutical Company Limited, priority 2009, dated 2013).

Target: T1, Smo (Mus musculus, UniProt P56726)
T1 construct: endogenous in cells; host or cells: NIH-3T3 cells stably carrying the Gli reporter plasmid
Assay: Gli reporter luciferase assay in NIH-3T3/Gli reporter cells stimulated with mouse Shh-N end fragment
Assay type: cell-based
Conditions: NIH3T3; 1 μM compound; NIH-3T3/Gli reporter cells with mouse Shh-N culture supernatant, 48 hr; luciferase activity, control without compound as 100; read-out: inhibitory rate (%) at 1 μM
Procedure: Gli reporter plasmid was constructed by inserting 8×Gli-binding site and chicken δ-crystalline promoter into the upstream of luc+ of pGL3 (Promega).
prepared in reference to the base sequence described in GenBank accession No.; X02187, and chicken genome DNA (Clontech) as a template. PCR reaction was performed using Pfu Turbo (Stratagene) and following the attached protocol. The obtained 108 bp fragment was digested with restriction enzymes BglII and HindIII, and inserted into BglII-HindIII site of pGL3 to give plasmid pGL3/δ-cry promoter.
As 8×Gli-binding site, a sequence containing eight 9-bp Gli bound consensus sequences (GACCACCCA) described in Yoon et al., J. Biol. Chem., vol. 273, pages 3496-3501 (1998) was prepared from synthetic DNA. That is, two synthetic DNAs,
were heat treated at 95° C. for 2 minutes, and incubated at 37° C. for 1 hr for annealing to give a double stranded DNA of the above-mentioned two synthetic DNAs. The obtained double stranded DNA was digested with restriction enzymes BglII and KpnI, and the obtained DNA fragment was inserted into BglII-KpnI site of pGL3/δ-cry promoter to construct plasmid pGL3/δ-cry promoter, 8×Gli binding site, i.e., Gli reporter plasmid.
HEK293 cells were grown in D-MEM medium (Invitrogen) containing 10% fetal bovine serum in a 10 cm dish and pcDNA3.1/mShh-N was introduced into the cells using FuGENE6 (Roche Applied Science). Thereafter, the HEK293 cells were cultured in a carbon dioxide gas incubator at 37° C. for 24 hours, and the medium was exchanged with D-MEM medium (Invitrogen) containing 2% fetal bovine serum. After culturing for 48 hr, a culture supernatant containing recombinant type mouse Shh-N end fragment was obtained by filtration using a filter ([…]).
Using D-MEM (Invitrogen) containing 10% fetal bovine serum, expression plasmid pcDNA3.1 and Gli reporter plasmid (pGL3/δ-cry promoter, 8×Gli binding site) produced by the method of Experimental Example 1 were introduced into NIH-3T3 cells grown in a 10 cm dish by the use of FuGENE6 (Roche Applied Science).
After culture for 24 hr, the cells were recovered, suspended in D-MEM medium containing 10% fetal bovine serum and supplemented with Geneticin (Life Technologies Oriental, Inc.) to a final concentration of 500 μg/ml, diluted to 10^4 cells/ml, plated on a 96 well plate, and cultured in a carbon dioxide gas incubator at 37° C. to give Geneticin resistant transformed cell line.
The obtained transformed cell line was cultured in a 96 well plate, mouse Shh-N end fragment obtained in Experimental Example 3 was added, and NIH-3T3/Gli reporter cell, which is a cell line capable of induction of luciferase expression, was selected.
NIH-3T3/Gli reporter cells cultured in D-MEM (Invitrogen) containing 10% fetal bovine serum were plated in a 96 well white plate at 1×10^4 cells/well, and cultured overnight in a carbon dioxide gas incubator at 37° C. The medium was removed, a compound (50 μl) and culture supernatant of mouse Shh-N end fragment-expressing HEK293 (D-MEM medium containing 2% fetal bovine serum, 50 μl) were added, and the cells were cultured for 48 hr in a carbon dioxide gas incubator at 37° C. Bright-Glo (Promega, 50 μl) was added, and the mixture was stirred, after which luciferase activity was measured by EnVision (PerkinElmer). The inhibition rate was calculated based on the luciferase activity of the control without addition of the compound as 100.

T1 sequence (P56726 33-793): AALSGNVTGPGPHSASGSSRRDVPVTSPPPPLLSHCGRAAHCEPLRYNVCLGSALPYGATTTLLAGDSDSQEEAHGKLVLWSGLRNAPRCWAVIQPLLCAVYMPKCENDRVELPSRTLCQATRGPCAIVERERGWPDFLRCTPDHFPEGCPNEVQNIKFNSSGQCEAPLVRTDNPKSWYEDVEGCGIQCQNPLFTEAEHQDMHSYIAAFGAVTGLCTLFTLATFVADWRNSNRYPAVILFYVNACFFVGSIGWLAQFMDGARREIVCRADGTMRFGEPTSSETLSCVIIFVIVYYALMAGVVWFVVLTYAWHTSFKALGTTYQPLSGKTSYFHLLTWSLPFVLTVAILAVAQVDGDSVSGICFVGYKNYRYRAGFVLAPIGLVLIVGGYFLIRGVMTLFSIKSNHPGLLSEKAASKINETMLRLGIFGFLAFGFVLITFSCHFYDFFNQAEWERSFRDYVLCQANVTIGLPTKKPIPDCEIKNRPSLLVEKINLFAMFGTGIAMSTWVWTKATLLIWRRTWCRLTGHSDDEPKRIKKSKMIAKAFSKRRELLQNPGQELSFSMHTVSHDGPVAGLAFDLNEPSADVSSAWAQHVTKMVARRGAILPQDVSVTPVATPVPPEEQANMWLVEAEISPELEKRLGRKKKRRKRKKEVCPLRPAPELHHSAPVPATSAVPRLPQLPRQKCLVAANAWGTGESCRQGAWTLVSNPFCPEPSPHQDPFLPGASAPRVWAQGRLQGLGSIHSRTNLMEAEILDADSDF

Compared with CCOc1c(C(=O)NC2CCN(C(=O)CO)CC2)n(C)c2nc(C)n(CC(=O)c3ccccc3)c(=O)c12 [Example 2, 5-ethoxy-N-[1-(hydroxyacetyl)piperidin-4-yl]-2,7-dimethyl-4-oxo-3-(2-oxo-2-phenylethyl)-4,7-dihydro-3H-pyrrolo[2,3-d]pyrimidine-6-carboxamide], Cc1nc2c(c(OCC(F)(F)F)c(C(=O)NC3CCN(C(=O)CO)CC3)n2C)c(=O)n1CC(=O)c1ccccc1 [Example 1, N-[1-(hydroxyacetyl)piperidin-4-yl]-2,7-dimethyl-4-oxo-3-(2-oxo-2-phenylethyl)-5-(2,2,2-trifluoroethoxy)-4,7-dihydro-3H-pyrrolo[2,3-d]pyrimidine-6-carboxamide] is higher in inhibition at 1 µM: 95% for the first, 98% for the second.

Cc1nc2c(c(OCC(F)(F)F)c(C(=O)NC3CCN(C(=O)CO)CC3)n2C)c(=O)n1Cc1ccc(Cl)cc1 [Example 9, 3-(4-chlorobenzyl)-N-[1-(hydroxyacetyl)piperidin-4-yl]-2,7-dimethyl-4-oxo-5-(2,2,2-trifluoroethoxy)-4,7-dihydro-3H-pyrrolo[2,3-d]pyrimidine-6-carboxamide] gave an inhibition at 1 µM of 95%.
